Measurements: patent publication US12697343B2, “Intravenous istaroxime for the treatment of acute heart failure” (Seismic Pharmaceuticals Operations LLC, priority 2021, dated 2026)
Structures can show the parent of a compound that is named as a salt.

Test system: patients hospitalized for acute heart failure (AHF)
Test: Echocardiographic parameters (tissue Doppler echocardiography), phase II trial of 24 h istaroxime infusion
Format: in vivo, human
Parameters: E/e′ change from baseline to 24 h: dose or concentration left out as unconfirmed
Conditions: for E/e′ change from baseline to 24 h (primary endpoint): mITT, hydrochloride; for E/e′ change from baseline to 24 h (primary endpoint) / E/A ratio change at 24 h / LV ejection fraction change at 24 h / LV end-diastolic volume index change at 24 h / LV end-systolic volume index change at 24 h / Left atrial area change at 24 h / Left atrial volume index change at 24 h / Stroke volume index change at 24 h / S′ change at 24 h: mean ± standard deviation
Description: The measurement of one or more cardiac parameters disclosed herein can be measured by Echocardiography which may be performed on subjects according to international standards (see, for example, Lang R M et a I. J Am Soc Echocardiogr 2005; 18(12): 1440-63; Nagueh S F et al. Eur J Echocardiogr 2009; 10(2): 165-93; Evangelista A et a I. Eur J Echocardiogr 2008; 9(4):438-48).
In some embodiments, cardiac parameters can be measured as follows: • 1. Cardiac dimension measures: • a. Left ventricle end diastolic diameter (EDD): measured with M-mode echocardiography at the level of mitral valve (MV) leaflets from parasternal long axis view (PLAX) (normal range [N R]: 42-59 mm males and 39-53 mm females); • b. Left ventricle end systolic diameter (ESD): measured with M-mode echocardiography at the level of mitral valve (MV) leaflets from PLAX (N R: 25-35 mm): • c. Left ventricle end diastolic volume (EDV): measured with M-mode echocardiography at the level of mitral valve (MV) leaflets from PLAX (N R: 67-155 mL males and 56-104 mL females); • d. Left ventricle end systolic volume (ESV): measured with M-mode echocardiography at the level of mitral valve (MV) leaflets from PLAX (N R: 22-58 mL males and 19-49 mL females); • e. Left atrium diameter (LAD): measured at end-ventricular systole with M-mode echocardiography from PLAX. (N R: 30-40 mm males and 27-38 mm females) • f. Left atrium area (LAA): measured from apical four chamber view (NR: £20 cm2); and • g. Left atrium volume (LAV): derived from area-length measured from apical four chamber view (N R: 18-58 mL males and 22-52 mL females). • 2. Left ventricle diastolic function parameters: • a. E wave: measured from mitral valve pulsed wave Doppler, is the peak velocity of early filling. […] A wave: measured from mitral valve pulsed wave Doppler is the peak velocity of late atrial filling. Not evaluable in subjects with AF: • c. E wave deceleration time (EDT): measured from mitral valve pulsed wave Doppler represent the slope of the descending part of E wave; • d. E/A ratio: determines the type of diastolic filling pattern (normal E/A=1-2 and EDT=150-200 ms, abnormal relaxation E/A<1 and EDT>240 ms, pseudonormal E/A=0.8-1.5: restrictive E/A^32 and EDT <160 ms). Not evaluable in subjects with AF; • e. Ea: measured with tissue Doppler method at the lateral and septal side of the mitral annulus from apical four chamber view is the early diastolic velocity. The value has been calculated as the average between Ea lateral and Ea septal. (NR310 cm/s) (see Nagueh S F et al. Eur J Echocardiogr. 2009:10(2):165-93); • f. Aa: measured with tissue Doppler method at the lateral and septal side of the mitral annulus from apical four chamber view is the late atrial diastolic velocity. The value has been calculated as the average between Aa lateral and Aa septal. Not evaluable in subjects with AF; and • g. E/Ea ratio: this is a derived measure from E and Ea value. This is highly correlated with left ventricle filling pressure and with prognosis in subjects with HF. (NR: <13) (see Nagueh S F et al. supra). • 3. Left ventricle systolic function parameters: • a. Left ventricle ejection fraction (LVEF): measured with Simpson biplane method according to international recommendations from apical four chamber view and apical two chamber view. (NR ^355%) (see Lang R M et al. J Am Soc Echocardiogr. 2005:18(12): 1440-63); and • b. Sa: measured with tissue Doppler method at the lateral and septal side of the mitral annulus from apical four chamber view. The value has been calculated as the average between Sa lateral and Sa septal. […] Overall cardiac contraction parameters: • a. Stroke volume (SV): is a derived measure obtained with the application of Bernoulli's formula using the dimension of left ventricle outflow tract (LVOT) as diameter and LVOT time velocity integral as velocity. (NR>60 mL/beat); • b. Cardiac output (CO): is derived by the multiplication of SV× heart rate (HR) (NR: >4 L/min); • c. […]

## C[C@]12CCC(=NOCCN)C[C@@H]1C(=O)C[C@@H]1[C@@H]2CC[C@]2(C)C(=O)CC[C@@H]12 [Istaroxime, (E,Z)-3-((2-aminoethoxy)imino)androstane-6,17-dione hydrochloride]
0.5 μg/Kg/min, 6 hours
  A wave mean change from baseline: 1.76 cm/s
  CI mean change from baseline: 0.20 l/min/m^2
  E wave mean change from baseline: -4.35 cm/s
  E/A ratio mean change from baseline: −0.28
  E/e′ ratio mean change from baseline: −3.48
  EDV Index mean change from baseline: 0.85 ml/m^2
  EDV mean change from baseline: 1.47 mL
  ESV Index mean change from baseline: −2.54 ml/m^2
  ESV mean change from baseline: -4.89 mL
  IVC diameter mean change from baseline: −2.41 mm
  LAA mean change from baseline: −0.38 cm^2
  LAV mean change from baseline: 0.05 mL
  LAVI mean change from baseline: −0.51 mL/m^2
  LVEF mean change from baseline: 2.03%
  PASP mean change from baseline: −4.21 mmHg
  SVI mean change from baseline: 5.66 ml/beat/m^2
  S′ mean change from baseline: 0.63 cm/s
  TAPSE mean change from baseline: 0.41 mm
  e′ mean change from baseline: 0.63 cm/s
0.5 μg/Kg/min, 24 hours
  A wave mean change from baseline: 5.13 cm/s
  CI mean change from baseline: 0.27 l/min/m^2
  E wave mean change from baseline: -8.14 cm/s
  E/A ratio mean change from baseline: −0.64
  E/e′ ratio mean change from baseline: −4.55
  EDV Index mean change from baseline: −0.20 ml/m^2
  EDV mean change from baseline: -0.71 mL
  ESV Index mean change from baseline: −3.78 ml/m^2
  ESV mean change from baseline: -7.11 mL
  IVC diameter mean change from baseline: −4.30 mm
  LAA mean change from baseline: −1.70 cm^2
  LAV mean change from baseline: -7.94 mL
  LAVI mean change from baseline: −4.32 mL/m^2
  LVEF mean change from baseline: 3.03%
  PASP mean change from baseline: −10.89 mmHg
  SVI mean change from baseline: 5.33 ml/beat/m^2
  S′ mean change from baseline: 0.68 cm/s
  TAPSE mean change from baseline: 0.73 mm
  e′ mean change from baseline: 0.94 cm/s
0.5 μg/Kg/min, 48 hours
  A wave mean change from baseline: -0.94 cm/s
  CI mean change from baseline: 0.19 l/min/m^2
  E wave mean change from baseline: -5.21 cm/s
  E/A ratio mean change from baseline: −0.28
  E/e′ ratio mean change from baseline: −2.56
  EDV Index mean change from baseline: −0.07 ml/m^2
  EDV mean change from baseline: -0.59 mL
  ESV Index mean change from baseline: −1.19 ml/m^2
  ESV mean change from baseline: -2.57 mL
  IVC diameter mean change from baseline: −4.16 mm
  LAA mean change from baseline: −2.01 cm^2
  LAV mean change from baseline: -9.17 mL
  LAVI mean change from baseline: −5.01 mL/m^2
  LVEF mean change from baseline: 1.19%
  PASP mean change from baseline: −11.18 mmHg
  SVI mean change from baseline: 3.68 ml/beat/m^2
  S′ mean change from baseline: 0.22 cm/s
  TAPSE mean change from baseline: −0.34 mm
  e′ mean change from baseline: 0.32 cm/s
0.5 μg/kg/min (cohort 1)
  E/e′ change from baseline to 24 h (primary endpoint): −4.55 ± 4.75
0.5 μg/kg/min (cohort 1), listed as istaroxime
  E/e′ change from baseline to 24 h (primary endpoint): −4.55±4.75
0.5 μg/kg/min
  E/A ratio change at 24 h: −0.64 ± 0.79
  LV ejection fraction change at 24 h: 3.03 ± 4.04%
  LV end-diastolic volume index change at 24 h: −0.20 ± 5.45 mL/m^2
  LV end-systolic volume index change at 24 h: −3.78 ± 6.76 mL/m^2
  Left atrial area change at 24 h: −1.70 ± 2.46 cm^2
  Left atrial volume index change at 24 h: −4.32 ± 7.28 mL/m^2
  Stroke volume index change at 24 h: 5.33 ± 6.67 mL/beat/m^2
  S′ change at 24 h: 0.68 ± 0.91 cm/s
1.0 μg/Kg/min, 6 hours
  A wave mean change from baseline: 5.88 cm/s
  CI mean change from baseline: 0.15 l/min/m^2
  E wave mean change from baseline: -10.19 cm/s
  E/A ratio mean change from baseline: −0.35
  E/e′ ratio mean change from baseline: −2.05
  EDV Index mean change from baseline: 0.64 ml/m^2
  EDV mean change from baseline: 1.35 mL
  ESV Index mean change from baseline: −2.42 ml/m^2
  ESV mean change from baseline: -4.62 mL
  IVC diameter mean change from baseline: −1.24 mm
  LAA mean change from baseline: −1.03 cm^2
  LAV mean change from baseline: -4.94 mL
  LAVI mean change from baseline: −2.86 mL/m^2
  LVEF mean change from baseline: 2.35%
  PASP mean change from baseline: −2.60 mmHg
  SVI mean change from baseline: 4.32 ml/beat/m^2
  S′ mean change from baseline: 1.00 cm/s
  TAPSE mean change from baseline: 1.56 mm
  e′ mean change from baseline: -0.03 cm/s
1.0 μg/Kg/min, 24 hours
  A wave mean change from baseline: 9.00 cm/s
  CI mean change from baseline: 0.15 l/min/m^2
  E wave mean change from baseline: -14.06 cm/s
  E/A ratio mean change from baseline: −0.65
  E/e′ ratio mean change from baseline: −3.16
  EDV Index mean change from baseline: −2.08 ml/m^2
  EDV mean change from baseline: -3.67 mL
  ESV Index mean change from baseline: −6.23 ml/m^2
  ESV mean change from baseline: -11.39 mL
  IVC diameter mean change from baseline: −2.23 mm
  LAA mean change from baseline: −2.21 cm^2
  LAV mean change from baseline: -12.94 mL
  LAVI mean change from baseline: −7.32 mL/m^2
  LVEF mean change from baseline: 3.82%
  PASP mean change from baseline: −4.76 mmHg
  SVI mean change from baseline: 5.49 ml/beat/m^2
  S′ mean change from baseline: 0.81 cm/s
  TAPSE mean change from baseline: 1.16 mm
  e′ mean change from baseline: 0.10 cm/s
1.0 μg/Kg/min, 48 hours
  A wave mean change from baseline: 5.30 cm/s
  CI mean change from baseline: 0.20 l/min/m^2
  E wave mean change from baseline: -11.53 cm/s
  E/A ratio mean change from baseline: −0.36
  E/e′ ratio mean change from baseline: −2.21
  EDV Index mean change from baseline: −1.86 ml/m^2
  EDV mean change from baseline: -3.18 mL
  ESV Index mean change from baseline: −4.46 ml/m^2
  ESV mean change from baseline: -8.09 mL
  IVC diameter mean change from baseline: −2.19 mm
  LAA mean change from baseline: −0.94 cm^2
  LAV mean change from baseline: -6.67 mL
  LAVI mean change from baseline: −3.80 mL/m^2
  LVEF mean change from baseline: 2.06%
  PASP mean change from baseline: −3.00 mmHg
  SVI mean change from baseline: 2.91 ml/beat/m^2
  S′ mean change from baseline: 0.26 cm/s
  TAPSE mean change from baseline: 0.31 mm
  e′ mean change from baseline: 0.19 cm/s
1.0 μg/kg/min (cohort 2)
  E/e′ change from baseline to 24 h (primary endpoint): −3.16 ± 2.59
1.0 μg/kg/min (cohort 2), listed as istaroxime
  E/e′ change from baseline to 24 h (primary endpoint): −3.16±2.59
1.0 μg/kg/min
  E/A ratio change at 24 h: −0.65 ± 1.10
  LV ejection fraction change at 24 h: 3.82 ± 4.14%
  LV end-diastolic volume index change at 24 h: −2.08 ± 9.05 mL/m^2
  LV end-systolic volume index change at 24 h: −6.23 ± 9.23 mL/m^2
  Left atrial area change at 24 h: −2.21 ± 3.18 cm^2
  Left atrial volume index change at 24 h: −7.32 ± 10.0 mL/m^2
  Stroke volume index change at 24 h: 5.49 ± 4.98 mL/beat/m^2
  S′ change at 24 h: 0.81 ± 1.01 cm/s
per-protocol population
  E/e′ change from baseline to 24 h: −3.19±2.63
